This passage reports IC50 results from patent publication US20230078764A1 (Yumanity Therapeutics, Inc., priority 2019, published 2023).

The target of experiment [1] is T1, human SCD5 (Homo sapiens, UniProt Q86SK9).
T1 construct: expressed in transfected cells; host or cells: yeast strain with OLE1 deleted, plasmid-borne human SCD5 (selected in SD-Ura)
T1 sequence (Q86SK9 1-330): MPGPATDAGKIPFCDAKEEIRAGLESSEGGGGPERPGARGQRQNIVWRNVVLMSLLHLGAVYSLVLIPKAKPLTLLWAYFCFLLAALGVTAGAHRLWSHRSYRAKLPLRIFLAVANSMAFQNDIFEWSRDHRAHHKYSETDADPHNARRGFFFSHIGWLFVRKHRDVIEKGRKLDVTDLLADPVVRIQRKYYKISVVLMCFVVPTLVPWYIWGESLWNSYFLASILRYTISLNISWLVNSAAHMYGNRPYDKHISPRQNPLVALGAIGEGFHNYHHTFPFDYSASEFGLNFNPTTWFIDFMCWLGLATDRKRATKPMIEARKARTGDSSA
Description: Growth inhibition of yeast strain expressing human SCD5 as sole desaturase (OLE1 deleted), OD600 readout. The class given is cell-based. To be noted: yeast strain expressing human SCD5 as sole desaturase; growth (OD600) after 40 h at 30° C.; read-out: SCD5 IC50.

The target in experiment [2] is T2, human SCD1 (Homo sapiens, UniProt O00767).
T2 construct: expressed in transfected cells; host or cells: yeast strain with OLE1 deleted, plasmid-borne human SCD1 (selected in SD-Ura)
T2 sequence (O00767 1-359): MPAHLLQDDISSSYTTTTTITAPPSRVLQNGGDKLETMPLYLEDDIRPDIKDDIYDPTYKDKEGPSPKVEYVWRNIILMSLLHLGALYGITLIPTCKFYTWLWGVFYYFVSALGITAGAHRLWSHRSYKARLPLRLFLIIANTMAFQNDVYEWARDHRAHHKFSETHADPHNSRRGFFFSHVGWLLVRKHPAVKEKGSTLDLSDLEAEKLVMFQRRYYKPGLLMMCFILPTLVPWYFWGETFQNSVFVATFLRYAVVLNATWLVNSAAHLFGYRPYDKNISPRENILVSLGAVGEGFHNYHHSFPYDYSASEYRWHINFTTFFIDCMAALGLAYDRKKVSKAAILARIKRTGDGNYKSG
Nature of the experiment: Growth inhibition of yeast strain expressing human SCD1 as sole desaturase (OLE1 deleted), OD600 readout. In kind it is cell-based. To be noted: yeast strain expressing human SCD1 as sole desaturase; growth (OD600) after 40 h at 30° C.; read-out: SCD1 IC50.

On to `Cn1cc(C(=O)Nc2ccc(Cc3cc(F)cc(F)c3)cn2)cn1` [Compound 315], for which the half-maximal inhibitory concentration (IC50) in experiment [1] and in experiment [2] was 10 nM throughout.

For `Cn1cc(C(=O)Nc2ccc(Cc3cc(F)cc(Cl)c3)cn2)cn1` [Compound 316], the IC50 in experiment [1] and in experiment [2] was 10 nM in each case.

With `Cn1nc(C(=O)Nc2nc(Br)c(Cc3cccc(F)c3)s2)ccc1=O` [Compound 317], the IC50 in experiment [1] was 100 nM; in experiment [2], 980 nM.

Consider `CCO/C=C/c1ccc(C(=O)Nc2ccc(Cc3cccc(Cl)c3)cn2)cn1` [Compound 318], for which the results for the IC50 in experiment [1] and in experiment [2] were 50 nM and 130 nM, respectively.

`O=C(Nc1ccc(Cc2cccc(Cl)c2)cn1)c1cnc(Cl)c(F)c1` [Compound 319]: the IC50 in experiment [1] is 460 nM; in experiment [2], over 45000 nM.

On to `C=C(OCC)c1ccc(C(=O)Nc2ccc(Cc3cccc(Cl)c3)cn2)cn1` [Compound 320], for which the IC50 in experiment [1] is 1580 nM; in experiment [2] it was over 45000 nM.

Turning to `O=C(Nc1ccc(CC2CCCCC2)cn1)c1ccc(CO)cn1` [Compound 321], the IC50 in experiment [1] and in experiment [2] was 10 nM in each case.

Regarding `Cn1nc(NC(=O)N[C@H]2CC[C@@H](Cc3cccc(Cl)c3)CC2)ccc1=O` [Compound 322], the IC50 in experiment [1] came to 6070 nM; in experiment [2], 12700 nM.

Consider `Cn1nc(C(=O)Nc2ccc(Cc3ccc(F)c(Cl)c3)cn2)cc1O` [Compound 323], for which the IC50 in experiment [1] is 810 nM; in experiment [2], 10700 nM.

As to `Cn1nc(C(=O)Nc2ccc(Cc3ccc(F)c(F)c3)cn2)cc1O` [Compound 324], the IC50 in experiment [1] was 1130 nM; in experiment [2], over 45000 nM.

For the molecule `Cn1nc(C(=O)Nc2ccc(Cc3cc(F)cc(F)c3)cn2)cc1O` [Compound 325], the results for the IC50 in experiment [1] and in experiment [2] were 660 nM and 16400 nM, respectively.

For the molecule `CCn1cc(C(=O)Nc2ccc(CC3CCCCC3)cn2)ccc1=O` [Compound 326], the IC50 in experiment [1] was 4710 nM; in experiment [2] it was over 45000 nM.

Turning to `N#Cc1ccc(C(=O)Nc2ccc(CC3CCCCC3)cn2)cn1` [Compound 327], the IC50 is 1320 nM in experiment [1] and over 45000 nM in experiment [2].

`Cn1cccc(C(=O)Nc2ccc(Cc3ccc(F)c(F)c3)cn2)c1=O` [Compound 328]: the figures for the IC50 in experiment [1] and in experiment [2] were 10 nM and 1760 nM, respectively.

Regarding `Cn1cccc(C(=O)Nc2ccc(Cc3cc(F)cc(F)c3)cn2)c1=O` [Compound 329], the IC50 in experiment [1] amounted to 10 nM; in experiment [2], 100 nM.

As to `Cn1cccc(C(=O)Nc2ccc(Cc3cccc(Cl)c3)cn2)c1=O` [Compound 330], the IC50 in experiment [1] was determined as 10 nM; in experiment [2] it was 570 nM.

Turning to `Cn1cccc(C(=O)Nc2ccc(Cc3ccc(F)c(Cl)c3)cn2)c1=O` [Compound 331], the concentration for half-maximal inhibition (IC50) in experiment [1] came out at 10 nM; in experiment [2] it was 130 nM.

`CCn1cccc(C(=O)Nc2ccc(Cc3cccc(F)c3)cn2)c1=O` [Compound 332]: the IC50 in experiment [1] came to 480 nM; in experiment [2], 1680 nM.

Regarding `C=Cc1ncc(C(=O)Nc2ccc(Cc3cccc(Cl)c3)cn2)cc1F` [Compound 333], the results for the IC50 in experiment [1] and in experiment [2] were 180 nM and 110 nM, respectively.

Take `O=C(Nc1ccc(Cc2cccc(F)c2)cn1)c1cc(Br)sn1` [Compound 334]: the IC50 in experiment [1] was 9390 nM; in experiment [2], over 45000 nM.

Take `Cn1ccc(C(=O)Nc2ccc(Cc3cccc(F)c3)cn2)nc1=O` [Compound 335]: the IC50 in experiment [1] is 690 nM; in experiment [2], 15400 nM.

With `Cn1cc(C(=O)N[C@H]2CC[C@H](Cc3cccc(Cl)c3)CC2)ccc1=O` [Compound 336], the IC50 in experiment [1] was 4270 nM; in experiment [2] it was over 45000 nM.

With `Cn1cc(C(=O)Nc2ccc(C#CC3CC3)cn2)ccc1=O` [Compound 337], the results for the IC50 in experiment [1] and in experiment [2] were 9870 nM and over 45000 nM, respectively.

On to `Cn1nc(C(=O)Nc2cc(Cc3ccc(Cl)cc3)ccn2)ccc1=O` [Compound 338], for which the IC50 in experiment [1] is 16300 nM; in experiment [2] it was over 45000 nM.

On to `CC1(C)CN(C(=O)c2ccc(Cc3cccc(F)c3)cn2)CCO1` [Compound 339], for which the half-maximal inhibitory concentration (IC50) is 17700 nM in experiment [1] and over 45000 nM in experiment [2].

Consider `CN1N=C(C(=O)Nc2ncc(Cc3cccc(C(F)(F)F)c3)s2)CCC1=O` [Compound 340], for which the IC50 in experiment [1] stood at 120 nM; in experiment [2], 90 nM.

For `CN1N=C(C(=O)Nc2ncc(Cc3ccc(C#N)cc3)s2)CCC1=O` [Compound 341], the IC50 in experiment [1] was 2700 nM; in experiment [2], over 45000 nM.

`Cn1cc(C(=O)Nc2ccc(Nc3cccc(Cl)c3)cn2)ccc1=O` [Compound 342]: the IC50 is 20900 nM in experiment [1] and over 45000 nM in experiment [2].

Take `CN1N=C(C(=O)Nc2ccc(Cc3cccc(F)c3)s2)CCC1=O` [Compound 343]: the IC50 came to 3420 nM in experiment [1] and 3140 nM in experiment [2].

In the case of `O=C(Nc1ccc(Cc2cccc(F)c2)cn1)c1ccn2cnnc2c1` [Compound 344], the results for the IC50 in experiment [1] and in experiment [2] were 26300 nM and over 45000 nM, respectively.

As for `Cn1nc(C(=O)Nc2nnc(Cc3cccc(F)c3)s2)ccc1=O` [Compound 345], the IC50 turned out to be 2520 nM in experiment [1] and 3950 nM in experiment [2].

On to `Cn1nc(C(=O)Nc2nnc(Cc3cc(F)cc(Cl)c3)s2)ccc1=O` [Compound 346], for which the results for the concentration for half-maximal inhibition (IC50) in experiment [1] and in experiment [2] were 550 nM and 340 nM, respectively.

For the molecule `Cn1nc(C(=O)Nc2nnc(Cc3ccc(F)c(Cl)c3)s2)ccc1=O` [Compound 347], the IC50 in experiment [1] came to 710 nM; in experiment [2], 680 nM.

Regarding `CN(Cc1ccc(C(=O)Nc2ccc(Cc3cccc(Cl)c3)cn2)cn1)C(=O)OC(C)(C)C` [Compound 348], the IC50 was 4960 nM in experiment [1] and 7370 nM in experiment [2].

On to `Cn1cc(C(=O)Nc2ccc(Nc3cccc(F)c3)cn2)ccc1=O` [Compound 349], for which the IC50 was 32300 nM in experiment [1] and over 45000 nM in experiment [2].

Turning to `Cn1cc(C(=O)Nc2nnc(Cc3ccc(F)c(Cl)c3)s2)ccc1=O` [Compound 350], the IC50 in experiment [1] was 5420 nM; in experiment [2], 2600 nM.

`Cn1nc(C(=O)Nc2cnc(Cc3cccc(Cl)c3)nc2)ccc1=O` [Compound 351]: the results for the IC50 in experiment [1] and in experiment [2] were 35500 nM and over 45000 nM, respectively.

In the case of `Cn1cc(NCc2ccc(Cc3cccc(F)c3)cn2)ccc1=O` [Compound 352], the IC50 in experiment [1] was 35500 nM; in experiment [2] it was over 45000 nM.

In the case of `Cn1cc(C(=O)Nc2nc(C#N)c(Cc3cccc(F)c3)s2)ccc1=O` [Compound 353], the values for the half-inhibitory concentration (IC50) in experiment [1] and in experiment [2] were 1360 nM and 1940 nM, respectively.

For the molecule `CC(=O)c1ccc(C(=O)Nc2ccc(Cc3cccc(Cl)c3)cn2)cn1` [Compound 354], the IC50 was 280 nM in experiment [1] and 6780 nM in experiment [2].

In the case of `CCn1cc(C(=O)Nc2ccc(Cc3cccc(F)c3)cn2)cn1` [Compound 355], the IC50 in experiment [1] turned out to be 160 nM; in experiment [2], 540 nM.

Regarding `Cn1cc(C(=O)Nc2ccc(Cc3cccc(F)c3)cn2)cn1` [Compound 356], the concentration for half-maximal inhibition (IC50) in experiment [1] was determined as 40 nM; in experiment [2] it was 120 nM.

On to `Cn1cc(NC(=O)c2ccc(Cc3cccc(F)c3)cn2)ccc1=O` [Compound 357], for which the results for the IC50 in experiment [1] and in experiment [2] were 50 nM and 4060 nM, respectively.

On to `O=C(Nc1ccc(Cc2cccc(F)c2)cn1)c1cnc2nsnc2c1` [Compound 358], for which the results for the IC50 in experiment [1] and in experiment [2] were 170 nM and 6050 nM, respectively.

Take `Cn1cc(-c2cnc(NC(=O)Cc3cccc(F)c3)cn2)ccc1=O` [Compound 359]: the values for the IC50 in experiment [1] and in experiment [2] were 3270 nM and 18700 nM, respectively.

In the case of `Cn1nc(C(=O)Nc2ccc(CCOc3cccc(F)c3)cn2)ccc1=O` [Compound 360], the IC50 amounted to 6590 nM in experiment [1] and 32600 nM in experiment [2].

For `Cn1cc(C(=O)Nc2ccc(OCc3cccc(Cl)c3)cn2)ccc1=O` [Compound 361], the half-inhibitory concentration (IC50) was 2630 nM in experiment [1] and over 45000 nM in experiment [2].

In the case of `Cn1nc(C(=O)Nc2ccc(CCOc3ccccc3)cn2)ccc1=O` [Compound 362], the IC50 in experiment [1] is 14500 nM; in experiment [2], over 45000 nM.

Consider `Cn1nccc(NC(=O)c2ccc(Cc3cccc(Cl)c3)cn2)c1=O` [Compound 363], for which the IC50 in experiment [1] worked out at 130 nM; in experiment [2], 3160 nM.

As to `COc1nccc(C(=O)Nc2ccc(Cc3cccc(F)c3)cn2)n1` [Compound 364], the 50% inhibitory concentration (IC50) in experiment [1] came to 20 nM; in experiment [2], 710 nM.

As to `O=C(Nc1ccc(COc2ccc(F)c(Cl)c2)cn1)c1ccc(=O)n(C2CC2)c1` [Compound 365], the IC50 in experiment [1] was determined as 4000 nM; in experiment [2], 25800 nM.

As to `O=C(Nc1ccc(Cc2cccc(Cl)c2)cn1)c1ccc(CCO)nc1` [Compound 366], the IC50 in experiment [1] and in experiment [2] was 20 nM each time.

Consider `Cn1nc(C(=O)Nc2ccc(Nc3cccc(Cl)c3)cn2)ccc1=O` [Compound 367], for which the IC50 in experiment [1] came to 2980 nM; in experiment [2] it was 25800 nM.

Take `CC(O)c1ccc(C(=O)Nc2ccc(Cc3cccc(Cl)c3)cn2)cn1` (stereo not drawn) [Compound 368]: the values for the IC50 in experiment [1] and in experiment [2] were 240 nM and 1370 nM, respectively.

One may read the IC50 as the concentration needed to halve the response being measured.
